Data published in patent US4826847A, “Beta-blocking oxindole derivatives” (Boehringer Mannheim GmbH, priority 1984, dated 1989).
Counter-ions that a name gives are not always drawn. Like-named read-outs stand apart in the source and are kept apart here.

What was measured:
livers = assay: denitration rate relative to isosorbide-5-mononitrate (Vrel): NO2 freed in perfusate of re-perfused rat livers; settings: rat liver perfusion 4 min, 5×10^-5 M/l, NO2 determined in the perfusate; high values = fast denitration
[1] = system: increase of the frequency through isoprenaline; assay: β-blocking effectiveness: inhibition of isoprenaline-induced increase of the frequency in rabbits; assay type: in vivo, rabbit; settings: Oryctolagus cuniculus, iv, read-out: ID 50 fcor (dose which causes an inhibition of 50% of the increase of the frequency through isoprenaline)
[2] = rabbits, i.v., isoprenaline 1 mcg/kg i.v.

SMILES | Vrel (denitration rate in relation to isosorbide-5-mononitrate) (livers) | ED50 [1, 2] [mg/kg] | ED50 [1] [mg/kg]
CC(CCO[N+](=O)[O-])NCC(O)COc1ccc2c(c1)NC(=O)C2 (centres unmarked) [1 (d), 6-[2-hydroxy-3-(1-methyl-3-nitratopropylamino)-propoxy]-indolinone fumarate] | 1.81 | – | –
Cc1cc(C=C2C(=O)Nc3cccc(OCC(O)CNC(C)CCO[N+](=O)[O-])c32)[nH]n1 (centres unmarked) [BV 43, 4-[2-hydroxy-3-(1-methyl-3-nitratopropylamino)-propoxy]-3-(3-methylpyrazol-5-yl)-methyleneindolinone] | 0.83 | 0.0096 | –
CC(CCO[N+](=O)[O-])NCC(O)COc1cccc2c1C(=Cc1ccc[nH]1)C(=O)N2 (centres unmarked) [2 (a), 4-[2-hydroxy-3-(1-methyl-3-nitratopropylamino)-propoxy]-3-(pyrrol-2-yl)-methylene-indolinone hemifumarate] | 2.40 | – | –
CC(CCO[N+](=O)[O-])NCC(O)COc1cccc2c1C(=Cc1ccccn1)C(=O)N2 (centres unmarked) [2 (b), 4-[2-hydroxy-3-(1-methyl-3-nitratopropylamino)-propoxy]-3-(pyridin-2-yl)-methylene-indolinone fumarate] | 0.86 | 0.172 | –
CC(CC(C)O[N+](=O)[O-])NCC(O)COc1cccc2c1C(=Cc1ccn[nH]1)C(=O)N2 (centres unmarked) [4 (h), 4-[2-hydroxy-3-(1,3-dimethyl-3-nitratopropylamino)-propoxy]-3-pyrazol-5-yl)-methylene-indolinone fumarate] | 1.39 | 0.039 | –
CC(CCO[N+](=O)[O-])NCC(O)COc1cccc2c1C(=Cc1nc[nH]n1)C(=O)N2 (centres unmarked) [4 (d), 4-[2-hydroxy-3-(1-methyl-3-nitratopropylamino)-propoxy]-3-(1,2,4-triazol-3-yl)-methyleneindolinone fumarate] | 1.00 | 0.0096 | –
CC(CC(C)O[N+](=O)[O-])NCC(O)COc1cccc2c1CC(=O)N2 (centres unmarked) [1 (b), 4-[2-hydroxy-3-(1,3-dimethyl-3-nitratopropylamino)-propoxy]-indolinone fumarate] | 2.02 | 0.0038 | –
CC(CCO[N+](=O)[O-])NCC(O)COc1cccc2c1C(C)(C)C(=O)N2 (centres unmarked) [BV 2, 4-[2-hydroxy-3-(1-methyl-3-nitratopropylamino)-propoxy]-3,3-dimethylindolinone fumarate] | 2.99 | – | –
Cc1cc(C=C2C(=O)Nc3cccc(OCC(O)CNCC(C)(C)CO[N+](=O)[O-])c32)[nH]n1 (centres unmarked) [4 (k), 4-[2-hydroxy-3-(2,2-dimethyl-3-nitratopropylamino)-propoxy]-3-(3-methylpyrazol-5-yl)-methyleneindolinone] | 1.88 | – | –
CC(CCO[N+](=O)[O-])NCC(O)COc1cccc2c1C(=Cc1ccn[nH]1)C(=O)N2 (centres unmarked) [Example 2, 4-[2-Hydroxy-3-(1-methyl-3-nitratopropylamino)-propoxy]-3-(pyrazol-5-yl)-methyleneindolinone benzoate] | 1.12 | 0.011 | –
CC(C)(CCO[N+](=O)[O-])NCC(O)COc1cccc2c1CC(=O)N2 (centres unmarked) [1 (a), 4-[2-hydroxy-3-(1,1-dimethyl-3-nitratopropylamino)-propoxy]-indolinone hemifumarate] | 1.23 | 0.015 | –
O=[N+]([O-])O[C@@H]1CO[C@H]2[C@@H]1OC[C@@H]2O [Isosorbide-5-mononitrate, isosorbide-5-mononitrate, reference compound] | 0.86 | – | –
CC(=O)O.CC(CCO[N+](=O)[O-])NCC(O)COc1cccc2c1C(=Cc1cc(=O)[nH]c(=O)[nH]1)C(=O)N2 (centres unmarked) [4 (f), 4-[2-hydroxy-3-(1-methyl-3-nitratopropylamino)-propoxy]-3-(uracil-4-yl)-methylene-indolinone acetate] | 1.80 | – | –
CC(CCO[N+](=O)[O-])NCC(O)COc1cccc2c1CC(=O)N2 (centres unmarked) [Example 1, 4-[2-hydroxy-3-(1-methyl-3-nitratopropylamino)-propoxy]-indolinone benzoate] | 1.60 | 0.0066 | –
CC(CCO[N+](=O)[O-])NCC(O)COc1cccc2c1C(=Cc1cccs1)C(=O)N2 (centres unmarked) [4 (b), 4-[2-hydroxy-3-(1-methyl-3-nitratopropylamino)-propoxy]-3-(thiophen-2-yl)-methylene-indolinone fumarate] | 0.54 | 0.0276 | –
CC(CCO[N+](=O)[O-])NCC(O)COc1ccc2c(c1)C(C(C)c1ccccc1)C(=O)N2 (stereo not drawn) [1 (g), 5-[2-hydroxy-3-(1-methyl-3-nitratopropylamino)-propoxy]-3-(α-methylbenzyl)-indolinone hemifumarate] | 0.70 | 5.31 | –
CC(C)(CNCC(O)COc1cccc2c1CC(=O)N2)CO[N+](=O)[O-] (centres unmarked) [BV 40, 4-[2-hydroxy-3-(2,2-dimethyl-3-nitratopropylamino)-propoxy]-indolinone hemifumarate] | 3.51 | 0.69 | –
CC(C)NCC(O)COc1cccc2[nH]ccc12 (centres unmarked) [Pindolol, reference compound] | – | 0.104 | –
CC(CCO[N+](=O)[O-])NCC(O)COc1cccc2c1C(=Cc1ccccc1)C(=O)N2 (centres unmarked) [2 (c), 4-[2-hydroxy-3-(1-methyl-3-nitratopropylamino)-propoxy]-3-benzylideneindolinone fumarate] | 0.59 | 1.97 | –
CC(=C1C(=O)Nc2ccc(OCC(O)CNC(C)CCO[N+](=O)[O-])cc21)c1ccccc1 (stereo not drawn) [1 (i), 5-[2-hydroxy-3-(1-methyl-3-nitratopropylamino)-propoxy]-3-(α-methylbenzylidene)-indolinone hemifumarate] | 0.81 | 3.36 | –
CC(CCO[N+](=O)[O-])NCC(O)COc1cccc2c1C(=Cc1ccc(C#N)cc1)C(=O)N2 (centres unmarked) [4 (j), 4-[2-hydroxy-3-(1-methyl-3-nitratopropylamino)-propoxy]-3-(4-cyanobenzylidene)-indolinone hemifumarate] | 0.49 | – | –
CC(CCO[N+](=O)[O-])NCC(O)COc1cccc2c1C(=Cc1cccc(Cl)c1)C(=O)N2 (centres unmarked) [BV 4, 4-[2-hydroxy-3-(1-methyl-3-nitratopropylamino)-propoxy]-3-(3-chlorobenzylidene)-indolinone fumarate] | 1.22 | 1.09 | –
CC(CCO[N+](=O)[O-])NCC(O)COc1ccc2c(c1)C(C(C)C)C(=O)N2 (centres unmarked) [1 (f), 5-[2-hydroxy-3-(1-methyl-3-nitratopropylamino)-propoxy]-3-isopropylindolinone] | 3.01 | – | –
CC(CCO[N+](=O)[O-])NCC(O)COc1cccc2c1C(=Cc1ccc([N+](=O)[O-])cc1)C(=O)N2 (centres unmarked) [BV 20, 4-[2-hydroxy-3-(1-methyl-3-nitratopropylamino)-propoxy]-3-(4-nitrobenzylidene)-indolinone] | 0.71 | – | 0.113
CC(CCO[N+](=O)[O-])NCC(O)COc1ccc2c(c1)CC(=O)N2 (centres unmarked) [1 (c), 5-[2-hydroxy-3-(1-methyl-3-nitratopropylamino)-propoxy]-indolinone fumarate] | 1.77 | 5.08 | –
CC(C)(CCO[N+](=O)[O-])NCC(O)COc1cccc2c1C(=Cc1ccn[nH]1)C(=O)N2 (centres unmarked) [4 (g), 4-[2-hydroxy-3-(1,1-dimethyl-3-nitratopropylamino)-propoxy]-3-(pyrazol-5-yl)-methylene-indolinone hemifumarate] | 1.59 | 0.013 | –
CC(CCO[N+](=O)[O-])NCC(O)COc1cccc2c1C(=Cc1ccco1)C(=O)N2 (centres unmarked) [4 (a), 4-[2-hydroxy-3-(1-methyl-3-nitratopropylamino)-propoxy]-3-(furan-2-yl)-methylene-indolinone fumarate] | 0.65 | 0.0096 | –
Cc1ccccc1C=C1C(=O)Nc2cccc(OCC(O)CNC(C)CCO[N+](=O)[O-])c21 (centres unmarked) [BV 6, 4-[2-hydroxy-3-(1-methyl-3-nitratopropylamino)-propoxy]-3-(2-methylbenzylidene)-indolinon fumarate] | 0.74 | > 4 | –
CC(CCO[N+](=O)[O-])NCC(O)COc1cccc2c1NC(=O)C2 (centres unmarked) [1 (e), 7-[2-hydroxy-3-(1-methyl-3-nitratopropylamino)-propoxy]-indolinone fumarate] | 1.79 | – | –
COc1cccc(C=C2C(=O)Nc3cccc(OCC(O)CNC(C)CCO[N+](=O)[O-])c32)c1 (centres unmarked) [BV 9, 4-[2-hydroxy-3-(1-methyl-3-nitratopropylamino)-propoxy]-3-(3-methoxybenzylidene)-indolinone acetate] | 0.60 | 0.765 | –
